Assay results reported in publication PMC4707489, “A novel cell-penetrating peptide suppresses breast tumorigenesis by inhibiting β-catenin/LEF-1 signaling” (Scientific Reports, 2016).

Assays:
Format in all cases: cell-based, human
[1] = system: MCF-7 cells; test: Cell growth (CCK-8); details: 75 μmol/l peptide, MCF-7, CCK-8; means of three experiments (Fig. 1b)
Method: (§1) Cell growth was analyzed using 2-(2-methoxy-4-nitrophenyl)-3-(4-nitroph enyl)-5-(2,4-disulfophenyl)-2H-tetrazolium, monosodium salt, and the Cell Counting Kit-8 (CCK-8, Sigma). […] After culturing for another 48 hr, cell growth was analyzed by CCK-8 and the optical density was detected at 450 nm. The growth ratio was normalized to the cells without treatment.

[2] = system: MDA-MB-231 cells; test: Cell growth (CCK-8); details: 75 μmol/l peptide, MDA-MB-231, CCK-8; means of three experiments (Fig. 1b)
Method: as §1

[3] = system: MCF-7 cells; test: Cell cycle analysis, sub-G1 (propidium iodide, flow cytometry); details: MCF-7, 100 μmol/l peptide, flow cytometry (Fig. 3a)
Method: MCF-7 and MDA-MB-231 cells were plated in 6-well plates for 24 hr, and the medium was replaced with fresh culture medium containing 100 μmol/l peptide. After incubation for 24 hr, the cells were harvested by trypsinization and then fixed with 70% 4 °C ethanol. Intracellular DNA was stained with […] propidium iodide in the dark for 30 min at room temperature, and the percentages of sub-G1 cells were determined by flow cytometry (BD LSRII analyzer; BD Biosciences).

Substance | cell growth [1] | cell growth [2] | sub-G1 phase region (pro-apoptotic effect) [3] [%]
H-TAT-NLS-GGGDPELCATDEMIPFKDEG-NH2 [TAT-NLS-BLBD-3] | inhibited the growth | inhibited the growth | 
H-TAT-NLS-GTDEAAAA-NH2 [TAT-NLS-BLBD-6m, mutated version of TAT-NLS-BLBD-6 (GTDEAAAA), used as control peptide] | did not affect the growth | did not affect the growth | 7.35
